Laboratory results as given in patent publication US11596623B2, “Methods for treating virus infection or proliferation” (HOWARD UNIVERSITY, priority 2018, dated 2023).
Where two headings read alike, the source gives them in different places.

Key:
[1] = biological target: T1, RACK1A Y248 phosphorylation (Arabidopsis thaliana, UniProt O24456); test: ABA-induced RACK1A Y248 phosphorylation in seedlings, western blot; format: in vivo; conditions: 10 μM ABA, 12 hours, one-week old seedlings
T1 construct: from tissue; host or cells: Arabidopsis seedlings or plants (wild type); lysates
T1 sequence (O24456 whole entry): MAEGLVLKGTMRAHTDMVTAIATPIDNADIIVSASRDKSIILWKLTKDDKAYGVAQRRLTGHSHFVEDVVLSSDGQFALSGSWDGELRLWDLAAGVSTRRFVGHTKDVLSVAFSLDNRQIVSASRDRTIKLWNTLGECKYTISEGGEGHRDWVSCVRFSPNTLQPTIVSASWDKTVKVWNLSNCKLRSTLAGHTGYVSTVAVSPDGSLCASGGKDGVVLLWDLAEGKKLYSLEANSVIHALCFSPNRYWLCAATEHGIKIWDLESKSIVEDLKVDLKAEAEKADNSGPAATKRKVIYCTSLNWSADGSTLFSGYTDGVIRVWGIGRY
Experimental: One-week old Arabidopsis seedlings were treated with 10 μM of stress hormone Abscisic acid (ABA) in the presence/absence of the inhibitor compounds for 12 hours in a growth chamber (overnight) at 22° C. Lysates were probed with an antibody raised to detect phosphorylated Y248 residue of RACK1A protein in Arabidopsis. Lysates from rack1a-1 knock-out mutant seedlings grown and treated similarly as the wild-type seedlings were used as a negative control. The compounds were dissolved in DMSO (D) and ABA was dissolved in methanol (M).
Proteins were separated by SDS-PAGE (25 μg loaded in each lane), transferred to nitrocellulose membranes (Amersham Inc., Piscataway, N.J., USA), and blocked with 5% nonfat milk for 60 min at room temperature. Membranes were incubated overnight at 4° C. with primary antibody, followed by incubation with a horseradish peroxidase-coupled secondary antibody and detection with enhanced chemiluminescence (Pierce, Rockford, Ill., USA), according to standard methods. Membranes were stripped with stripping buffer (100 mM 2-mercaptoethanol, 2% SDS, 62.5 mM Tris-HCl, pH 6.8), washed with PBS-0.1% Tween-20, and used to detect additional proteins. For Arabidopsis lysates one-week old seedlings were treated with 10 uM of ABA in the presence/absence of the inhibitor compounds for 12 hours in a growth chamber (overnight) at 22° C. mostly in the dark. […]

HSV1-Luc (R8411) = test: HSV1-Luc bioluminescence luciferase assay in HEp-2 cells; format: cell-based, HSV-1; design: HSV-1 proliferation (luciferase signal): dose or concentration left out as unconfirmed
Experimental: (A) Hep-2 cells were incubated with the indicated compounds in the presence of HSV1-Luc virus at a concentration of 4×10^6 pfu/ml media. (B) Quantification of the luciferase signal from the samples in panel (A). Signals from three replicates from two separate experiments were combined to generate the average and the standard error bar.
(§1) To 80-90% confluent HEp-2 cells, HSV-1-Luc (R8411) are added at a concentration of 2×10e^6 pfu/ml along with indicated concentration of inhibitor compounds. After the described incubation period, luciferase activity is evaluated from bioluminescence images acquired by a Perkin Elmer IVIS Spectrum Imaging system immediately after adding luciferase substrate (D-luciferin, Gold Bio Technology) at a concentration of 400 μg/mL in medium. Bioluminescence intensity in different wells is quantified in units of photons per second per centimetre squared per steradian (p/s/cm^2/sr) by drawing a polygonal region of interest over the signals in images using Living Image 3.0 software (Caliper Life Sciences).
as §1, with “cells, HSV1-Luc” for “cells, HSV-1-Luc”, “(R8411) was” for “(R8411) are”, “activity was” for “activity is”, “wells was” for “wells is”, “per centimeter” for “per centimetre”
To visualize the effect of the drugs on the proliferation of HSV-1, a luciferase tagged HSV-1 F strain expressing luciferase (R8411 mutant) under the control of ICP27 promoter was obtained [Horsburgh B C, Hubinette M M, Tufaro F. Genetic manipulation of herpes simplex virus using bacterial artificial chromosomes. Methods Enzymol. 1999; 306:337-52]. […] The same samples after incubation of 48 h were used to assay for HSV-1 ICP0 and RACK1 protein expression (B of FIG. 5). Depletion of RACK1 by the compounds correlated with the depletion of the viral ICP0 protein confirming earlier results shown in B of FIG. 3.

HEp-2 cells = test: Trypan blue exclusion cell viability; format: cell-based; conditions: 24-hour treatment
Experimental: In order to assess whether the compounds are producing any toxicity that can led to the cell deaths, we evaluated the cell viability by the trypan blue exclusion method. As long-term inhibition of RACK1 expression has been reported to cell cycle arrest, we limited our experimental treatments to 24 h and evaluated the cell viability of almost full confluent cells after 24 h of compound treatment.
In table 2, the viability of cells was measured with Trypan blue exclusion assay in a Cellometer (Nexcelom, Lawrence, Mass.). The percentage survival of the compound treated cells was evaluated along with the DMSO treated cells. The values represent the mean±SE of three separate well based replicates.

Row | SMILES | ABA-induced RACK1A Y248 phosphorylation [1] | HSV-1 proliferation (luciferase signal) (HSV1-Luc (R8411)) | HEp-2 Cell viability, Mean (HEp-2 cells; 10 μM) [%] | HEp-2 Cell viability, Mean (HEp-2 cells; 100 μM) [%] | efficacy compared with acyclovir (HSV1-Luc (R8411); HSV1-Luc, acyclovir 10 μM) | HSV-1 proliferation (luciferase signal) (HSV1-Luc (R8411); co-treatment of compound and virus, dose series) | concentration from which inhibition of HSV-1 (HSV1-Luc) proliferation starts (HSV1-Luc (R8411); in vitro, luciferase signal) [µM] | efficacy relative to SD-29 (HSV1-Luc (R8411); starting concentration, HSV-1 luciferase signal) [times]
1 | Nn1c(S)nnc1-c1ccc(F)cc1 [SD-29] | prevented the ABA-induced Y248 phosphorylation | much less efficacy | 94.0 | 92.7 |  |  |  | 
2 | Nn1c(S)nnc1-c1cc(Cl)cc(Cl)c1 [SD29-14] | prevented the ABA-induced Y248 phosphorylation | significantly inhibited the HSV-1 proliferation | 97.5 | 93.7 | slightly higher level | strong inhibition of HSV-1 proliferation in a dose dependent manner | 1 | 100
